The values that follow come from patent publication US20110275644A1, “BIOLOGICAL MARKERS PREDICTIVE OF ANTI-CANCER RESPONSE TO INSULIN-LIKE GROWTH FACTOR-1 RECEPTOR KINASE INHIBITORS” (priority 2010, published 2011).

A word on the inhibition: it is the drop in the measured response relative to a control, in per cent.

One assay deals with phospho-IRS1^Y612. Nature of the assay: Western blot, phospho-IRS1 in tumor cell lines. Conditions: A673, H322, and H295R tumor cell lines; OSI-906 3 μM or MAB391 3 μg/ml. The class given is cell-based, human. Here is the method:
(§1) Preparation of Protein Lysates and Western Blotting: Lysates for Western blotting were prepared as previously described (44). Antibodies included: IGF-1R (Santa Cruz), IR (Santa Cruz), phospho-p42/p44 (Cell Signaling Technologies), phospho-Akt (S473) (Cell Signaling Technologies), phospho-Akt (T308) (Cell Signaling Technologies), phosho-S6 (235/236) (Cell Signaling Technologies), phosphor-PRAS40 (Cell Signaling Technologies), and phosphor-IRS-1-Y612 (Biosource).
(In general: Immunoblotting shows a protein as a band on a membrane.)

Assay [1] deals with T1, phospho-IGF-1R (Homo sapiens, UniProt P08069). The assay can be described thus: RTK capture array, panel of nine tumor cell lines. Also noted: endogenous in cells; host or cells: human tumour cell lines (panel of nine; HT-29; MDAH-2774; H322, SK-N-AS, H295R, A673). As to conditions: OSI-906 3 μM or MAB391 3 μg/mL; 16 hours; each cell line tested. The class given is cell-based. Here is the method:
(§2) Analysis of RTK phosphorylation via a proteome array: Proteome Profiler arrays containing capture antibodies for 42 RTKs were from R&D systems (RTK Proteome Profile; R&D Systems, Minneapolis, Minn.) and processed according to manufacturer's protocol. pIGF-1R and pIR were determined by RTK capture array. Proteome profiler arrays housed 42 different RTKs. RTKs included on the array include: HER1, HER2, HER3, HER4, FGFR1, FGFR2a, FGFR3, FGFR4, IR, IGF-1R, Axl, Dtk, Mer, HGFR, MSPR, PDGFRα, PDGFRβ, SCFR, Flt-3, M-CSFR, c-Ret, ROR1, ROR2, Tie-1, Tie-2, TrkA, TrkB, TrkC, VEGFR1, VEGFR2, VEGFR3, MuSK, EphA1, EphA2, EphA3, EphA4, EphA6, EphA7, EphB1, EphB2, EphB4, EphB6. This array was used as an RTK capture assay for determining pIGF-1R and pIR levels. Capture antibodies specific to each RTK are used to bind RTKs in tumor cell extracts. An HRP-conjugated pan anti-phospho-tyrosine antibody is used to specifically detect phosphorylated RTKs.

In another assay the test system is FaDu tumors. The assay can be described thus: tumor xenograft anti-tumor efficacy. More on the design: species or system nu/nu CD-1 mice. Conditions: after treatment with OSI-906 in vivo for 10-14 days. An excerpt: (§3) Animals: Female nu/nu CD-1 mice (6-8 weeks, 22-25 g) were purchased from Charles River Laboratories (Wilmington, Mass.) and maintained in an AAALAC-accredited facility at OSI Pharmaceuticals as described previously (12).
(§4) In vivo anti-tumor efficacy studies: Cells were harvested and implanted s.c. in the right flank of nu/nu CD-1 mice as described previously (12). Tumors were allowed to establish to 200±50 mm^3 in size before randomization into various treatment groups. […] Tumor volumes were determined from caliper measurements using the formula V=(length×width^2)/2. Tumor sizes and body weights were measured twice weekly. Tumor growth inhibition (TGI) was determined at different time points by the following formula: % TGI={1−[(Tt/T0)/(Ct/C0)]/1[C0/Ct}×100, where Tt=median tumor volume of treated at time t, T0=median tumor volume of treated at time 0, Ct=median tumor volume of control at time t, and C0=median tumor volume of control at time 0.

In the next assay the test system is Colo205 tumors. Nature of the assay: tumor xenograft anti-tumor efficacy. More on the design: species or system nu/nu CD-1 mice. Conditions: after treatment with OSI-906 in vivo for 10-14 days.
Description: as §3, §4

The subject of another assay is BxPC3 tumors. Nature of the assay: tumor xenograft anti-tumor efficacy. Also noted: species or system nu/nu CD-1 mice. Conditions: after treatment with OSI-906 in vivo for 10-14 days.
Description: as §3, §4

Another assay has as its system H460 tumors. The assay can be described thus: tumor xenograft anti-tumor efficacy. More on the design: species or system nu/nu CD-1 mice. Conditions: after treatment with OSI-906 in vivo for 10-14 days.
Description: as §3, §4

The test system of another assay is H295R tumors. Nature of the assay: tumor xenograft anti-tumor efficacy. As to conditions: after treatment with OSI-906 in vivo for 10-14 days. Also noted: species or system nu/nu CD-1 mice.
Description: as §3, §4

Assay [2] concerns the target T1, phospho-IGF-1R. The assay can be described thus: receptor phosphorylation in MDAH-2774 cells. The class given is cell-based. More on the design: endogenous in cells; host or cells: human tumour cell lines (MDAH-2774). Conditions: MDAH-2774 cells alone or with insulin, IGF-1 or IGF-2; OSI-906 3 μM or MAB391 3 μg/ml. The method, then: as §1
as §2, with “An HRP-conjugated pan anti-phospho-tyrosine antibody is used to specifically detect phosphorylated RTKs.” left out

Assay [3] relates to broad panel (n=116) of additional RTKs and other protein kinases. As to conditions: at 1 μM; cited from earlier work.
The test system of assay [4] is phospho-AKT. Nature of the assay: in vivo pharmacodynamic analysis, GEO tumors. Also noted: species or system nu/nu CD-1 mice. As to conditions: GEO model. Here is the method: Tumor samples were collected at specified time points and snap frozen in liquid nitrogen. Tumor lysates were prepared by homogenizing samples in Precellys 24 homogenizer (MO Bio Laboratories, Inc., CA) with tumor lysis buffer (1% Triton X-100, 10% glycerol, 50 mM HEPES (ph 7.4), 150 mM NaCl, 1.5 mM MgCl2, 1 mM EDTA supplemented with fresh protease inhibitor cocktail (Sigma, Mo.), phosphatase inhibitor cocktail (Sigma, Mo.), 10 mM NaF and 1 mM sodium orthovanadate). Tissue homogenates were clarified by centrifugation at 14,000 g for 5 min at 4° C. and supernatants were then analyzed by Western blot or phospho-RTK array as indicated.

The next assay concerns pERK. The assay can be described thus: pERK in doxorubicin-treated A673 tumor cells. Type of assay: cell-based, human.
The next assay relates to IR and IGF-1R. Nature of the assay: receptor phosphorylation in doxorubicin-treated A673 tumor cells. Type of assay: cell-based, human.
In assay [5] the test system is phospho-AKT. The assay can be described thus: phospho-AKT in HT-29 CRC cells with insulin. As to conditions: HT-29 cells, basal or 5 or 50 μIU/mL insulin. Type of assay: cell-based, human. Here is the method:
as §1

The test system of a further assay is GEO (CRC) tumors. The assay can be described thus: tumor xenograft anti-tumor efficacy. Type of assay: in vivo, nu/nu CD-1 mice. As to conditions: OSI-906 50 mg/kg once-daily for 14 days; MAB391 every three days for a total of 5 doses.
Description: as §3, §4

Assay [6] deals with SK-N-AS (neuroblastoma) tumors. The assay can be described thus: tumor xenograft anti-tumor efficacy. Type of assay: in vivo, nu/nu CD-1 mice.
Description: as §3, §4

The subject of assay [7] is phospho-AKT or phospho-ERK. Nature of the assay: Western blot, downstream AKT and ERK signaling in tumor cell lines. As to conditions: OSI-906 3 μM or MAB391 3 μg/ml, 16 hour. The class given is cell-based, human. The method, then:
as §1

Assay [8] deals with T1, phospho-IGF-1R. Nature of the assay: receptor phosphorylation in HT-29 CRC cells with insulin. The class given is cell-based. Also noted: endogenous in cells; host or cells: human tumour cell lines (panel of nine; HT-29; MDAH-2774; H322, SK-N-AS, H295R, A673). As to conditions: HT-29 cells treated with 5 or 50 μIU/mL insulin; OSI-906 3 μM or MAB391 3 μg/ml, 16 hours. The method, then: as §1
as §2, with “An HRP-conjugated pan anti-phospho-tyrosine antibody is used to specifically detect phosphorylated RTKs.” left out

The subject of assay [9] is MDAH-2774 OvCa tumor cells. Nature of the assay: growth inhibition assay (Cell Titer-Glo). Type of assay: cell-based, human. An excerpt: Cell Lines and Culture. Human cancer cell lines, were obtained from American Type Culture Collection (ATCC, Manassas, Va.), or the following additional indicated sources, and cultured in media as described. Tumor types are also indicated: H295R (adrenocortical carcinoma; ATCC), NCI-[…], NCI-[…], SW1573 (NSCLC; ATCC), […], BxPC3 (pancreatic; ATCC), OVCAR5 (ovarian; NCI;), MDAH-2774 (ovarian; ATCC), Igrov1 (ovarian; NCI), GEO (colon; Roswell Park Cancer Institute (RPCC)), HT-29 (colon; ATCC), RKO (colon; ATCC), […], 8226 (myeloma; ATCC), H929 (myeloma; ATCC), U266 (myeloma; ATCC), SKES1 (Ewings sarcoma; ATCC), RDES (Ewings sarcoma; ATCC), RD (rhabdomyosarcoma; ATCC), DU4475 (breast; ATCC), SKNAS (neuroblastoma; ATCC), 2650 (nasal SCC; ATCC), OVCAR4 (ovarian; NCI), A673 (Ewings sarcoma; ATCC), BT474 (breast; ATCC), 1386 (oral SCC; MSKCC, NY), 1186 (SCCHN; MSKCC, NY), Colo205 (colon; ATCC), HCT-15 (colon; ATCC), Fadu (oral SCC; ATCC), SKBR3 (breast; ATCC), 1483 (HNSCC; MSKCC, NY), HSC-2 (HNSCC; RIKEN BioResource Center, Tsukuba, Ibaraki, 305-0074, Japan). […] The cells were routinely screened for the presence of mycoplasma (MycoAlert, Cambrex Bio Science, Baltimore, Md.). For growth inhibition assays, cells were plated and allowed to proliferate for 24 hours. […] Cell viability was assayed using the Cell Titer-Glo reagent (Promega Corp., Madison, Wis.).

The next assay relates to phospho-PRAS40. Nature of the assay: Western blot, phospho-PRAS40 in H295R cells. Type of assay: cell-based, human. The method, then: as §1
Setting [10] is: A673 tumor cells, doxorubicin 300 nM.

T1 sequence (P08069 31-1367): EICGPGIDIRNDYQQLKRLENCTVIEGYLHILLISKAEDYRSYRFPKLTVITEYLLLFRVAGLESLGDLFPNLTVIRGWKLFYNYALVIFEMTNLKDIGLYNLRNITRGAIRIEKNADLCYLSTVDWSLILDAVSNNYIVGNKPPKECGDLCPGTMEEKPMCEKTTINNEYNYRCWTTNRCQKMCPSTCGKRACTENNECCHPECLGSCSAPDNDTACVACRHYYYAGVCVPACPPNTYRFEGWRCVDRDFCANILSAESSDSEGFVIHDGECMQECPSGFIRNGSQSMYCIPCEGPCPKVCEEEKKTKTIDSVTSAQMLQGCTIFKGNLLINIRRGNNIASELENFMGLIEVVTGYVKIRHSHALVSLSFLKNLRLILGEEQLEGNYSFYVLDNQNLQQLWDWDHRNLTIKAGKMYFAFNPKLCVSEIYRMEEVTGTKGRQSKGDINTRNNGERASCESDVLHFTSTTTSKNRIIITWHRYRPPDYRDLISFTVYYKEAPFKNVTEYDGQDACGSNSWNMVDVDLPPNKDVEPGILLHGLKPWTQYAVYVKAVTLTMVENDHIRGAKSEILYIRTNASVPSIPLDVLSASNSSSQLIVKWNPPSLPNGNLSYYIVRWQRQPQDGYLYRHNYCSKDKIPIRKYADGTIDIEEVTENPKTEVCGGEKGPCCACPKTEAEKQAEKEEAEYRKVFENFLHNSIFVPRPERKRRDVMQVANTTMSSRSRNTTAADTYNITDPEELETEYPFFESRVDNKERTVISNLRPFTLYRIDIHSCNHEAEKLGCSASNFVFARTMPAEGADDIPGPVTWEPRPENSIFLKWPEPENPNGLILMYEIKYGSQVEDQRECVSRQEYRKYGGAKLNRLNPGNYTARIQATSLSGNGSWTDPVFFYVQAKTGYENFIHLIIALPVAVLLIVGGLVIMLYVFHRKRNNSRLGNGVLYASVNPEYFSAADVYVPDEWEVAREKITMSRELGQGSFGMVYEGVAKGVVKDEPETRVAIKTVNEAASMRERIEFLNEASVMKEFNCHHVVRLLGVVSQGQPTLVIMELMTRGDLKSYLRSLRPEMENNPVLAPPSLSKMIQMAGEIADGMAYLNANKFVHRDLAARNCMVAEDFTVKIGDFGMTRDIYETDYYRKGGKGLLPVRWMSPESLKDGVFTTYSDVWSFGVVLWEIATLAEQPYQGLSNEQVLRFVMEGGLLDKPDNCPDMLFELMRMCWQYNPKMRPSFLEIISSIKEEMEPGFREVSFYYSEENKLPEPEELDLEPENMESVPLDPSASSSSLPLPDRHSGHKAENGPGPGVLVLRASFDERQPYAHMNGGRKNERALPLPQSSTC

Take `C[C@]1(O)C[C@@H](c2nc(-c3ccc4ccc(-c5ccccc5)nc4c3)c3c(N)nccn32)C1` [OSI-906, cis-3-[8-amino-1-(2-phenyl-quinolin-7-yl)-imidazo[1,5-a]pyrazin-3-yl]-1-methyl-cyclobutanol]: in the assay on phospho-IRS1^Y612, the “inhibition of phosphorylation of IRS1^Y612” value is “strongly inhibited”. Moreover, on phospho-IGF-1R [1], the “decrease of phospho-IGF-1R” value was above 90%. Further, the “% TGI” value in the assay on FaDu tumors is on record as below 30%; in the assay on Colo205 tumors, 90%; with BxPC3 tumors, 56%; in the assay on H460 tumors, below 30%; in the assay on H295R tumors it was 85%; in assay [6] (after treatment with OSI-906 in vivo for 10-14 days), 71%. For the same molecule, on phospho-IGF-1R [2], the “inhibition of IGF-1R phosphorylation” value is “fully inhibited”. For the same molecule, the inhibition in [3] was below 50%. Besides, the “effect on phospho-AKT in tumors” value in the assay with phospho-AKT [4] is given as “decreased phospho-AKT in tumors”. In the assay with pERK (A673 tumor cells treated with doxorubicin (300 nM), compared with MAB391), the “inhibition of pERK” value is “greater inhibition of pERK”. In addition, in the assay with IR and IGF-1R (A673 tumor cells treated with doxorubicin (300 nM)), the “inhibition of IR and IGF-1R phosphorylation” value was “inhibits both IR and IGF-1R”. In addition, the “inhibition of phospho-AKT” value in the assay on phospho-AKT [5] was “fully inhibited”. Further, in the assay on GEO (CRC) tumors, the “mean TGI over the dosing period” value is on record as 79%. Also, the “mean tumor growth inhibition (TGI) over the dosing period” value in [6] (OSI-906 50 mg/kg once-daily for 14 days, MAB391 1 mg every three days intraperitoneally) stood at 100%. In [7] (H322, H295R, and A673 cells), the “decrease of phospho-AKT or phospho-ERK levels” value is on record as “to a greater extent than did MAB391”. Moreover, in assay [7] (SK-N-AS (neuroblastoma) tumor cells), the “effect on phospho-AKT levels” value is given as “decrease phospho-AKT levels”. For the same molecule, on phospho-IGF-1R [8], the “inhibition of phospho-IGF-1R” value is “fully inhibited”. Moreover, the “sensitivity to OSI-906 in vitro” value in assay [9] was “sensitive”. Moreover, the “effect on phospho-PRAS40” value in the assay with phospho-PRAS40 was “decreased phospho-PRAS40”.

For the molecule `COc1cccc2c1C(=O)c1c(O)c3c(c(O)c1C2=O)C[C@@](O)(C(=O)CO)C[C@@H]3O[C@H]1C[C@H](N)[C@H](O)[C@H](C)O1` [doxorubicin, reference compound], the “downstream signaling at the level of pERK following treatment” value in the assay with pERK (setting [10]) was “increased phosphorylation of downstream signaling at the level of pERK”. In the assay on IR and IGF-1R (setting [10]), the “phosphorylation of IR and IGF-1R following treatment” value is “upregulated phosphorylation of both IR and IGF-1R”.
